The test system of experiment [1] is 5HT2A sensor. The class given is cell-based.
For experiment [2], the system named is 5HT2A sensor. The class given is cell-based. This is another data set of the same source.
Experiment [3] has as its target T1, 5-HT2A (Homo sapiens, UniProt P28223). The experiment can be described thus: Serotonin 5-HT2A in vitro cellular IPOne agonism assay. The format is cell-based. Also on record: host or cells: CHO-K1. The following applies: CHO-K1 cells, 60 min. The protocol: Serotonin 5-HT2A In Vitro Cellular IPOne Agonism Assay. The 5-HT2A IPOne HTRF assay was performed at Epics Therapeutics S.A. (Belgium, FAST-0505I) using conventional methods. Briefly, CHO-K1 cells expressing human recombinant 5-HT2A receptor grown to mid-log phase in culture media without antibiotics were detached with PBS-EDTA, centrifuged, and resuspended in medium without antibiotics buffer. 20,000 cells are distributed in a 96 well plate and incubated overnight at 37° C. with 5% CO2.
For agonist testing, the medium was removed and 20 μl of assay buffer plus 20 μl of test compound or reference agonist were added in each well. The plate was incubated for 60 min. at 37° C. with 5% CO2.
After addition of the lysis buffer containing IP1-d2 and anti-IP1 cryptate detection reagents, plates were incubated 1-hour at room temperature, and fluorescence ratios were measured according to the manufacturer specification, with the HTRF kit.

Experiment [4] deals with T1, 5-HT2A. The experiment is described as follows: Serotonin 5-HT2A in vitro cellular IPOne antagonism assay. The class given is cell-based. Also on record: host or cells: CHO-K1. The note with it: CHO-K1 cells; reference agonist a-Me-5HT. The protocol:
Serotonin 5-HT2A In Vitro Cellular IPOne Antagonism Assay. The 5-HT2A IPOne HTRF assay was performed at Epics Therapeutics S.A. (Belgium, FAST-0505I) in antagonism mode using conventional methods. Briefly, CHO-K1 cells expressing human recombinant 5-HT2A receptor grown to mid-log phase in culture media without antibiotics were detached with PBS-EDTA, centrifuged, and resuspended in medium without antibiotics buffer. 20,000 cells are distributed in a 96 well plate and incubated overnight at 37° C. with 5% CO2.
For antagonist testing, a reference agonist a-Me-5HT was added and fluorescence signal monitored for several minutes, followed by addition of 20 μl of assay buffer plus 20 μl of test compound or reference antagonist ketanserin, in each well. The plate was incubated for 60 min. at 37° C. with 5% CO2.
After addition of the lysis buffer containing IP1-d2 and anti-IP1 cryptate detection reagents, plates were incubated 1-hour at room temperature, and fluorescence ratios are measured according to the manufacturer specification, with the HTRF kit.

For experiment [5], the target named is T1, 5-HT2A. The experiment is described as follows: Serotonin 5-HT2A in vitro radioligand binding competition assay. Also on record: purchased Epics Therapeutics S.A. (Belgium), contract assay FAST-0505B; host or cells: membrane extracts. The note with it: [3H]-DOI radiotracer, membrane extracts, read-out: 5HT2A R[…] ACTIVITY
Here is the method: Serotonin 5-HT2A In Vitro Radioligand Binding Competition Assay. The 5-HT2A radioligand binding competition assay was performed at Epics Therapeutics S.A. (Belgium, FAST-0505B) using conventional methods. Briefly, competition binding was performed in duplicate in the wells of a 96 well plate (Master Block, Greiner, 786201) containing binding buffer (optimized for each receptor), membrane extracts (amount of protein/well optimized for each receptor), radiotracer [^3H]-DOI (final concentration optimized for each receptor) and test compound. Nonspecific binding was determined by co-incubation with 200-fold excess of cold competitor. The samples were incubated in a final volume of 0.1 ml at a temperature and for a duration optimized for each receptor and then filtered over filter plates. Filters were washed six times with 0.5 ml of ice-cold washing buffer (optimized for each receptor) and 50 μl of Microscint 20 (Packard) were added in each well. The plates were incubated 15 min on an orbital shaker and then counted with a TopCount™ for 1 min/well.

A further experiment concerns mice. The note with it: mouse, in vivo.

T1 sequence (P28223 whole entry): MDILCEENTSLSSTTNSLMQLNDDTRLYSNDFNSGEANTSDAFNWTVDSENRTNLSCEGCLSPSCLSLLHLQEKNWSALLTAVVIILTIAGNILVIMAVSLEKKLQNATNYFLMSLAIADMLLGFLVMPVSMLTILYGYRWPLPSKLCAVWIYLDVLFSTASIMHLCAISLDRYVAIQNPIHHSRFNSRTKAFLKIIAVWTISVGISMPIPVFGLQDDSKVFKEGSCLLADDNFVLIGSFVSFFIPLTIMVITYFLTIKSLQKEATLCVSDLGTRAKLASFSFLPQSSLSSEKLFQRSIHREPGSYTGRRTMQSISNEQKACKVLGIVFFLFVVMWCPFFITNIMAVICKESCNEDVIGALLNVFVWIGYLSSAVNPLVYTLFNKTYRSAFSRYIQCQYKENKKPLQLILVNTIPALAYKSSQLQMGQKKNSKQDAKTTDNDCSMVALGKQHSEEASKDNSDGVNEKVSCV

Turning to DOI, in the experiment on 5HT2A sensor [1], the “activation of the 5HT2A sensor assay” value is “activate the 5HT2A sensor assay in agonist mode”.
`CCN(CC)CCc1c[nH]c2cc(F)ccc12` [Compound 6-F-DET, 6-F-DET]: in the experiment with 5HT2A sensor [2], the “competition with 5-HT at 5HT2A in the sensor assay” value (“competition with 5-HT at 5HT2A” for short) is on record as “can compete with 5HT binding to 5HT2A”. For the same compound, the “activation of the 5HT2A sensor assay” value with 5HT2A sensor [1] is given as “do not activate the 5HT2A sensor assay in agonist mode”.
As to L-MDMA, the “activation of the 5HT2A sensor assay” value in the experiment with 5HT2A sensor [1] is “do not activate the 5HT2A sensor assay in agonist mode”.
By EC50 is commonly meant the concentration giving half of the maximal effect. The compound `Fc1ccc2c3c(sc2c1)CCN(C1CCC1)CC3` [Compound 32, 3-cyclobutyl-8-fluoro-2,3,4,5-tetrahydro-1H-benzo[4,5]thieno[2,3-d]azepine] gave an EC50 at 5-HT2A [3] (benzothiophenes) above 10000 nM. In addition, the IC50 on 5-HT2A [4] and on 5-HT2A [5] (benzothiophenes) was 10 to 100 nM in each case.
As for `CN(C)CCc1c[nH]c2ccccc12` [DMT, N,N-dimethyltryptamine], the “activation of the 5HT2A sensor assay” value in the experiment with 5HT2A sensor [1] is “activate the 5HT2A sensor assay in agonist mode”.
`CN1CCc2sc3cc(OC(F)(F)F)ccc3c2CC1` [Compound 75, 3-methyl-8-(trifluoromethoxy)-2,3,4,5-tetrahydro-1H-benzo[4,5]thieno[2,3-d]azepine] gave a 50% effective concentration (EC50) on 5-HT2A [3] (benzothiophenes) above 10000 nM. The values for the IC50 on 5-HT2A [4] and at 5-HT2A [5] (benzothiophenes) were 101 to 1000 nM and 1000 to 10000 nM, respectively.
The like results for `COc1ccc2c3c(sc2c1)CCN(C)CC3` [Compound 34, 8-methoxy-3-methyl-2,3,4,5-tetrahydro-1H-benzo[4,5]thieno[2,3-d]azepine] were, in that order, 1000 to 10000 nM, 101 to 1000 nM and 1000 to 10000 nM.
In the case of `COc1cccc2oc3c(c12)CN(C1CCC1)CCC3` [Compound 14, 2-cyclobutyl-10-methoxy-2,3,4,5-tetrahydro-1H-benzofuro[3,2-c]azepine], on 5-HT2A [3] (benzofurans), the EC50 fell in the range of 1000 to 10000 nM. Moreover, the values for the IC50 at 5-HT2A [4] and at 5-HT2A [5] (benzofurans) were 101 to 1000 nM and 1000 to 10000 nM, respectively.
Consider `CN1CCc2sc3ccccc3c2CC1` [Compound 72, 3-methyl-2,3,4,5-tetrahydro-1H-benzo[4,5]thieno[2,3-d]azepine], for which the EC50 at 5-HT2A [3] (benzothiophenes) was in the range of 101 to 1000 nM. Further, the IC50 on 5-HT2A [4] and at 5-HT2A [5] (benzothiophenes) was 10 to 100 nM each time.
On to `CCN(CC)C(=O)[C@@H]1C=C2c3cccc4[nH]c(Br)c(c34)C[C@H]2N(C)C1` [BOL148], for which, in the experiment on 5HT2A sensor [2], the “competition with 5-HT at 5HT2A” value was “can compete with 5HT binding to 5HT2A”. Besides, the “activation of the 5HT2A sensor assay” value in the experiment with 5HT2A sensor [1] is “do not activate the 5HT2A sensor assay in agonist mode”.
On to 5-MeO-DMT [Compound 5-MeO-DMT], for which the “activation of the 5HT2A sensor assay” value in the experiment with 5HT2A sensor [1] is on record as “activate the 5HT2A sensor assay in agonist mode”. For the same compound, in the experiment on mice, the “head-twitch response (HTR)” value is “robust, dose-dependent head-twitch response”.
Regarding R-MDMA, in the experiment with 5HT2A sensor [1], the “activation of the 5HT2A sensor assay” value is “do not activate the 5HT2A sensor assay in agonist mode”.
For `CCN(CC)C(=O)[C@@H]1C=C2c3cccc4[nH]cc(c34)C[C@H]2N(C)C1` [LSD], the “activation of the 5HT2A sensor assay” value with 5HT2A sensor [1] is reported as “activate the 5HT2A sensor assay in agonist mode”.
With `O=C(c1ccc(F)cc1)C1CCN(CCn2c(=O)[nH]c3ccccc3c2=O)CC1` [Ketanserin], the “competition with 5-HT at 5HT2A” value with 5HT2A sensor [2] is reported as “can compete with 5HT binding to 5HT2A”. Moreover, in the experiment with 5HT2A sensor [1], the “activation of the 5HT2A sensor assay” value is recorded as “do not activate the 5HT2A sensor assay in agonist mode”.
At 5-HT2A [3] (benzofurans), `CN1CCc2oc3ccccc3c2CC1` [Compound 30, 3-methyl-2,3,4,5-tetrahydro-1H-benzofuro[2,3-d]azepine] displayed a 50% effective concentration (EC50) above 10000 nM. Besides, the IC50 at 5-HT2A [4] and on 5-HT2A [5] (benzofurans) was 101 to 1000 nM in each case.

Source of the values: US20250051346A1 (priority 2021, published 2025).
